According to patent publication US7375092B2, “Lunasin peptides” (Regents of the University of California, priority 1997, dated 2008):

Legend:
[1] = test system: cotyledon and endosperm parynchematous cells; experiment: Plant transformation: mitotic disruption in developing seeds; assay type: in vivo; conditions: deletion mutant and synthetic fusion peptides
From the text: Cereal endosperm and legume cotyledon make up at least 85% of the seed weight and that seed size is genetically correlated to crop yield by at least 80%. […] To accomplish this, the 5′ regulatory regions of soybean conglycinin gene (a 170 bp DNA sequence element that is 200 nucleotides upstream of the transcription start site conferring cotyledon-specific expression (Chen et al., 1988, EMBO J 7:297) and rice glutelin gene (a 121 bp DNA sequence element that is 437/317 nucleotide upstream of the transcription start site conferring endosperm-specific expression (Yoshihara and Takaiwa, 1996, Plant Cell Physiol 37:107) are inserted into the −90 position of the CaMV 35S promoter which are then fused to the DNA fragments encoding the in-frame translation of lunasin and lunasin-del peptides. The DNA constructs are ligated to the binary vector, pKYLX71 (Lloyd et al., 1992, Science 258:1773) for Agrobacterium transformation and to pGEM-3Zf(+) vector (Promega) for biolistic transformation (Cho et al., 1995, Plant Mol Biol Rept 13:255). Agrobacterium-mediated transformation using the cotyledon-specific DNA constructs is utilized for most dicots, i.e. legumes (soybean, peas, peanuts and kidney beans), Arabidopsis thaliana and tobacco. For monocots like the cereal grain crops, wheat, rice, barley, rye and corn, the biolistic method of transformation is utilized using the endosperm-specific DNA constructs. The expression of the lunasin peptide in the developing seeds of all these plant species are monitored by immunolocalization using antibodies derived specifically to the carboxyl end epitope of the lunasin peptide.

mammalian cells = experiment: Mitotic disruption by peptide panel in mammalian studies; assay type: cell-based; conditions: deletion mutant and synthetic fusion peptides
From the text: Similar mitotic disruption is observed using a large panel of lunasin and alisin deletion mutant peptides (lunasin-del-n and alisin-del-n) and lunasin/alisin-like synthetic peptides (Gm2S-1-syn-n). Exemplary active lunasin-del peptides in these mammalian studies include (again using N→C nomenclature convention): • lunasin-del-1: MRG—residues 57-64 of SEQ ID NO:2 fusion protein • lunasin-del-2: α-tubulin—residues 54-64 of SEQ ID NO:2 fusion protein • lunasin-del-3: β-tubulin—residues 48-63 of SEQ ID NO:2 fusion protein • lunasin-del-4: MAP2 —residues 26-64 of SEQ ID NO:2 fusion protein • lunasin-del-5: Mapmodulin—residues 57-64 of SEQ ID NO:2 fusion protein • lunasin-del-6: GFP—residues 54-64 of SEQ ID NO:2 fusion protein • lunasin-del-7: MAP4—residues 44-63 of SEQ ID NO:2 fusion protein • lunasin-del-8: FLAGG—residues 30-64 of SEQ ID NO:2 fusion protein • lunasin-del-9: CYCLIN A—residues 57-64 of SEQ ID NO:2 fusion protein • lunasin-del-10: CYCLIN B1—residues 54-64 of SEQ ID NO:2 fusion protein • lunasin-del-11: CYCLIN B2—residues 40-63 of SEQ ID NO:2 fusion protein • lunasin-del-12: CYCLIN B3—residues 34-64 of SEQ ID NO:2 fusion protein • lunasin-del-13: SH2—octa-aspartate fusion protein • lunasin-del-14: SH3—octa-aspartate fusion protein • lunasin-del-15: SEQ ID NO:2, residues 48-55—MRG-octa-aspartate fusion protein • lunasin-del-16: SEQ ID NO:2, residues 48-55—SEQ ID NO:2, residues 48-55—octa-aspartate fusion protein • lunasin-del-17: MRG-tetrta-aspartate-tetra glutamate fusion protein • lunasin-del-18: SEQ ID NO:2, residues 48-55-octa-glutamate fusion protein • lunasin-del-19: SEQ ID NO:2, residues 1-21-MRG-deca-glutamate fusion protein • lunasin-del-20: SEQ ID NO:2, residues 48-55—SEQ ID NO:2, residues 48-55—tetra-aspartate-tetra glutamate fusion protein
Alternatively, the peptides are introduced indirectly by expression within the targeted cell. Such expression may be effected by transciently or by upregulation of a stably introduced peptide-encoding gene.

DH5 E. coli cells = experiment: Expression of Gm2S-1 peptides in bacteria: disruption of bacterial cell division (filamentation); assay type: cell-based; conditions: basal expression from pFLAG-1 in DH5 E. coli cells
From the text: We sought to produce purified Gm2S-1-derived peptides, including lunasin and alisin peptides, for allergenicity tests using bacterial expression vectors. Initially, PCR amplified fragments that encode lunasin and a lunasin deletion (lunasin-del) mutant (with the 9 aspartic acid deleted from the carboxyl end) were first cloned into pGEM-T (Promega) PCR cloning vector, then cut with EcoR1 and HindIII to release lunasin and lunasin-del gene fragment which were then subcloned into pFLAG-1 bacterial expression vector (Kodak/IBI). Lunasin and lunasin-del pFLAG constructs were used to transform competent DH5 E. coli cells using standard heat shock protocol.
Similar mitotic disruption is observed using a large panel of lunasin and alisin deletion mutant peptides (lunasin-del-n and alisin-del-n) and lunasin/alisin-like synthetic peptides (Gm2S-1-syn-n). […]

| Molecule | mitotic disruption, active peptides in plant transformation studies [1] | mitotic disruption, active peptides in mammalian studies (mammalian cells) | formation of elongated and non-septated bacterial filaments (DH5 E. coli cells) |
| --- | --- | --- | --- |
| lunasin-del-15: SEQ ID NO:2, residues 48-55—MRG-octa-aspartate fusion protein (MEKIQGRG; C-terminal MRG and octa-aspartate) | active | active | – |
| lunasin-del-18: SEQ ID NO:2, residues 48-55—octa-glutamate fusion protein (MEKIQGRG; C-terminal octa-glutamate) | active | active | – |
| lunasin-del-19: SEQ ID NO:2, residues 1-21—MRG-deca-glutamate fusion protein (MTKFTILLISLLFCIAHTCSA; C-terminal MRG and deca-glutamate) | active | active | – |
| large subunit peptide: 77 amino acid (8 kDa) large subunit (alisin) of Gm2S-1, residues 82-158 of SEQ ID NO:2 (protein) EGKDEDEEEEGHMQKCCTEMSELRSPKCQCKALQKIMENQSEELEEKQKKKMEKELINLATMCRFGPMIQCDLSSDD | – | – | not detected |
